Two compounds from patent US8652514B2, “Antimicrobial peptides” (priority 2009, dated 2014) can be followed below.

Where a SMILES comes first, the peptide text is derived from it. Bridges are numbered along the chain shown (N, C = ends). [ ]: non-standard residue; d: D form. Phe(ol) = N[C@H](CO)Cc1ccccc1; Aib = CC(C)(N)C(=O)O

A short description of test [1]: Pore-forming activity: dissipation of a membrane potential in azolectin liposomes. How it is done:
The minimal inhibitory concentration (MIC) was determined according to the method of Hancock (Hancock, R. E. W. Sep. 19, 1999, posting date. [Online.] Hancock Laboratory Methods. Department of Microbiology and Immunology, University of British Columbia, British Columbia, Canada. [Antibiotics and Antimicrobial Peptides: MIC Determination by Microtitre Broth Dilution Method, last accessed September 21st.]). Permeabilization of bacterial membranes and pore-forming activity were assayed as previously described (Herbst, R., Ott, C., Jacobs, T., Marti, T., Marciano-Cabral, F., Leippe, M. Pore-forming polypeptides of the pathogenic protozoon Naegleria fowleri. J. Biol. Chem. 2002. 277:22353-22360).
To investigate the mode of action of Alvinellacine, we used the fluorescent dye SYTOX-Green® and either the Gram-positive Bacillus megaterium or the Gram-negative E. coli (FIG. 3). […] We also measured the pore-forming activity of Alvinellacine to further characterize its mode of action by using a minimalistic membrane system. More precisely, we monitored the dissipation of a membrane potential induced in liposomes composed of azolectin, a crude phospho lipid mixture from soy bean. Pore-forming activity was detected at final concentrations up to 0.5 nM, whereas the positive control Alamethicine gave a signal at 0.1 nM.

In test [2] the test system is E. coli. The test can be described thus: Permeabilization of bacterial membranes (SYTOX-Green). The test is classed as cell-based, Escherichia coli. Conditions: Gram-negative E. coli, pH 7.4, measured 120 minutes after addition. How it is done:
(§1) FIG. 3 presents the permeabilization of Gram-positive bacteria (Bacillus megaterium) and Gram-negative bacteria (Escherichia coli) after intended use of the Alvinellacine and two other AMPs (Cecropin originated from pork and Magainin originated from amphibian). These experiences were carried out at pH 7.4. The permeabilization of bacteria was measured 10 minutes after addition of each AMP for B. megaterium, while the same measurement was done after 120 minutes after addition of each AMP for E. coli.
(§2) The minimal inhibitory concentration (MIC) was determined according to the method of Hancock (Hancock, R. E. W. Sep. 19, 1999, posting date. [Online.] Hancock Laboratory Methods. Department of Microbiology and Immunology, University of British Columbia, British Columbia, Canada. [Antibiotics and Antimicrobial Peptides: MIC Determination by Microtitre Broth Dilution Method, last accessed September 21st.]). […]
(§3) To investigate the mode of action of Alvinellacine, we used the fluorescent dye SYTOX-Green® and either the Gram-positive Bacillus megaterium or the Gram-negative E. coli (FIG. 3). […] We also measured the pore-forming activity of Alvinellacine to further characterize its mode of action by using a minimalistic membrane system. More precisely, we monitored the dissipation of a membrane potential induced in liposomes composed of azolectin, a crude phospho lipid mixture from soy bean. […]

Test [3] can be described thus: Permeabilization of liposomes filled with a fluorescent reagent. Conditions: positive control Alamethicin. How it is done:
FIG. 2 presents the ability of the Alvinellacine to create pores in liposomes, herein used to mimic bacterial membranes.
The mechanism of antibacterial activity was determined using liposomes filled with a fluorescent reagent. Liposomes consist of a bi-layer of phospholipids herein used to mimic the bacterial membrane. Permeabilization of the liposomes would result in a release of the internal compound, thus reacting with the medium and producing a fluorescent light that can be measured by spectrometry. The test is carried out with both negative and positive controls. Alamethicin, which is an antibiotic known to create pores in the bacterial membrane, is used as the positive control. The negative control is a solution of liposomes, intended for measurement of background noise (FIG. 2).

Test [4] concerns Bacillus megaterium. Nature of the test: Permeabilization of bacterial membranes (SYTOX-Green). The test is classed as cell-based. The conditions noted are these: Gram-positive Bacillus megaterium, pH 7.4, measured 10 minutes after addition. On the procedure: as §1, §2, §3

Regarding `CC(=O)NC(C)(C)C(=O)N1CCC[C@H]1C(=O)NC(C)(C)C(=O)N[C@@H](C)C(=O)NC(C)(C)C(=O)N[C@@H](C)C(=O)N[C@@H](CCC(N)=O)C(=O)NC(C)(C)C(=O)N[C@H](C(=O)NC(C)(C)C(=O)NCC(=O)N[C@@H](CC(C)C)C(=O)NC(C)(C)C(=O)N1CCC[C@H]1C(=O)N[C@H](C(=O)NC(C)(C)C(=O)NC(C)(C)C(=O)N[C@@H](CCC(=O)O)C(=O)N[C@@H](CCC(N)=O)C(=O)N[C@H](CO)Cc1ccccc1)C(C)C)C(C)C` [Alamethicine, Alamethicin, reference compound] (Ac-[Aib]P[Aib]A[Aib]AQ[Aib]V[Aib]GL[Aib]PV[Aib][Aib]EQ[Phe(ol)]), the “final concentration at which pore-forming activity was detected” value in test [1] worked out at 0.1 nM.

As for `CSCC[C@@H]1NC(=O)[C@@H]2CSSC[C@H](NC(=O)[C@H](CCCNC(=N)N)NC(=O)[C@H]([C@@H](C)O)NC(=O)[C@H](Cc3ccc(O)cc3)NC(=O)[C@@H](NC(=O)CNC(=O)[C@@H](N)CCCNC(=N)N)CSSC[C@@H](C(=O)N[C@H](C(=O)O)[C@@H](C)O)NC(=O)[C@H](C(C)C)NC(=O)[C@H](CCCNC(=N)N)NC1=O)C(=O)N[C@@H](Cc1c[nH]c3ccccc13)C(=O)N[C@@H](CCCCN)C(=O)N[C@@H](C(C)C)C(=O)NCC(=O)N[C@@H](CCCNC(=N)N)C(=O)N[C@@H](CC(N)=O)C(=O)NCC(=O)N[C@@H](CCCNC(=N)N)C(=O)N[C@@H](C(C)C)C(=O)N2` [Alvinellacine] (H-RGCYTRCWKVGRNGRVCMRVCT-OH; disulfide 3-21, 7-17 (inferred); N-terminus and C-terminus assumed), the “final concentration at which pore-forming activity was detected” value in test [1] is on record as “up to 0.5 nM”. Moreover, the “membrane-permeabilizing activity compared with Cecropin P1 and Magainin II” value in test [2] was “over one order of magnitude higher”. The “permeabilization of liposomes (mechanism of antibacterial activity)” value in test [3] was “permealibilizes the bi-layer of phospholipids”. In test [4], the “membrane-permeabilizing activity compared with the two positive controls (Cecropin P1, Magainin II)” value is “lower activity”.
